Where “and” joins values, the source holds several entries; their conditions need not be identical. Equal values may be shown once. Calls of active or inactive are those of the source. No cut-off for these calls is given here.
Columns and labels:
[1] = target: Neuronal acetylcholine receptor; alpha4/beta4 (Rattus norvegicus, UniProt P09483+P12392); experiment: biochemical
Description: Displacement of [3H]epibatidine from rat recombinant alpha4beta4 nAChR expressed in HEK293 cells after 4 hrs by scintillation counting analysis

[2] = target: Neuronal acetylcholine receptor; alpha4/beta2 (Rattus norvegicus, UniProt P09483+P12390); experiment: biochemical
Neuronal acetylcholine receptor; alpha4/beta2 (Rattus norvegicus, UniProt P09483+P12390), sequence (P09483 whole entry): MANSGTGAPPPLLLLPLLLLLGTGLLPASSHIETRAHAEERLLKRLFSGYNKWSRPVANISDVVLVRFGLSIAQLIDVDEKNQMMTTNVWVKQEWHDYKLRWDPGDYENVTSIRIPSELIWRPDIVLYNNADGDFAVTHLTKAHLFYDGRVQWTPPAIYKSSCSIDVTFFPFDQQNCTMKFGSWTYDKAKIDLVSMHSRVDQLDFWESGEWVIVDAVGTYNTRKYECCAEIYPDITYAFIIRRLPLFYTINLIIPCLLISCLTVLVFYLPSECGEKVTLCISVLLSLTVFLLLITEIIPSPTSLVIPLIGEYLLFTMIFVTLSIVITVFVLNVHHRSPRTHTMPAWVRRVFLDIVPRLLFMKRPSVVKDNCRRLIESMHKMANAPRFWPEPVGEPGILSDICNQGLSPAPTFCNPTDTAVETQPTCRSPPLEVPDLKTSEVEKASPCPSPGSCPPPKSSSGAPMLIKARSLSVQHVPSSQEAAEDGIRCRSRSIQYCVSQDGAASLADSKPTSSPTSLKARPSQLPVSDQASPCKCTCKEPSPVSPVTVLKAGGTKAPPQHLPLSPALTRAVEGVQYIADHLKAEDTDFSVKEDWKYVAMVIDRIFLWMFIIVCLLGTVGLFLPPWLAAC
Neuronal acetylcholine receptor; alpha4/beta2 (Rattus norvegicus, UniProt P09483+P12390), sequence (P12390 whole entry): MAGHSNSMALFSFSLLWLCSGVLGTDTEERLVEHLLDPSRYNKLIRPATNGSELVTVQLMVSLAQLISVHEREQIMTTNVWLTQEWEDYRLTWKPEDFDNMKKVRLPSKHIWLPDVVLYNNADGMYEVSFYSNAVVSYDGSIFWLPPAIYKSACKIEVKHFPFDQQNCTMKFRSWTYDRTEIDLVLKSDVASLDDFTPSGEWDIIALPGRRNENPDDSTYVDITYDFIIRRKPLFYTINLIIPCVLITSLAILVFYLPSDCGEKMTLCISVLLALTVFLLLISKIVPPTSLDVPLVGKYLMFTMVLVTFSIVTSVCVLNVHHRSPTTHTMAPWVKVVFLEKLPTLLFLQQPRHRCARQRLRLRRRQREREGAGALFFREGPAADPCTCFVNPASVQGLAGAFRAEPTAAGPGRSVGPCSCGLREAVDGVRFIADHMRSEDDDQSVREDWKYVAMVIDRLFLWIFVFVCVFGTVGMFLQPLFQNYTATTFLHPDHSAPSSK
Description: Displacement of [3H]epibatidine from rat recombinant alpha4beta2 nAChR expressed in HEK293 cells after 4 hrs by scintillation counting analysis

[3] = target: Acetylcholine-binding protein (Lymnaea stagnalis, UniProt P58154); conditions: hek293
Acetylcholine-binding protein, sequence (P58154 20-229 limits assumed): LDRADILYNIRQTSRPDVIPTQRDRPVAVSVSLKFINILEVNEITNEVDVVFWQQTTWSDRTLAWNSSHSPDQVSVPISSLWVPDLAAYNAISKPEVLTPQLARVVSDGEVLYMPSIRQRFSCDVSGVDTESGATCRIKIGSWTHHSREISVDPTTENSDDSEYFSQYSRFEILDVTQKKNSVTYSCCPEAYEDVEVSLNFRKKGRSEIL
Description: Displacement of [3H]epibatidine from Lymnaea stagnalis AChBP linked to ion channel portion of 5-HT3A receptor expressed in HEK293 cells after 4 hrs by scintillation counting analysis

[4] = target: T1, Neuronal acetylcholine receptor; alpha4/beta2 (Homo sapiens, UniProt P17787+P43681)
T1 sequence (P17787 whole entry): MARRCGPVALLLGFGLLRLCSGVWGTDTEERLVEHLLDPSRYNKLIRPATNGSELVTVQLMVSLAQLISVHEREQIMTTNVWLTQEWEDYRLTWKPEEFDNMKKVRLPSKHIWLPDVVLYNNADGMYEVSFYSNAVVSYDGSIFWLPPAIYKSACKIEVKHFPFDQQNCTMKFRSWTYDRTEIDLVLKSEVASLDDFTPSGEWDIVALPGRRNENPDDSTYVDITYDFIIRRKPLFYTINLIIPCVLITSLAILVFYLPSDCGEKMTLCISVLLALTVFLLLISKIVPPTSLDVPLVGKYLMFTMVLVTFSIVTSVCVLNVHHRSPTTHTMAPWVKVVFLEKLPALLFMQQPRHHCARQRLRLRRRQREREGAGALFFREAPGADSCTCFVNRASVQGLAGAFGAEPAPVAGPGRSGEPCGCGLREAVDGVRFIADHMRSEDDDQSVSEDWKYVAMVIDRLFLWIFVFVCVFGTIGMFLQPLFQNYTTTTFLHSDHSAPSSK
T1 sequence (P43681 whole entry): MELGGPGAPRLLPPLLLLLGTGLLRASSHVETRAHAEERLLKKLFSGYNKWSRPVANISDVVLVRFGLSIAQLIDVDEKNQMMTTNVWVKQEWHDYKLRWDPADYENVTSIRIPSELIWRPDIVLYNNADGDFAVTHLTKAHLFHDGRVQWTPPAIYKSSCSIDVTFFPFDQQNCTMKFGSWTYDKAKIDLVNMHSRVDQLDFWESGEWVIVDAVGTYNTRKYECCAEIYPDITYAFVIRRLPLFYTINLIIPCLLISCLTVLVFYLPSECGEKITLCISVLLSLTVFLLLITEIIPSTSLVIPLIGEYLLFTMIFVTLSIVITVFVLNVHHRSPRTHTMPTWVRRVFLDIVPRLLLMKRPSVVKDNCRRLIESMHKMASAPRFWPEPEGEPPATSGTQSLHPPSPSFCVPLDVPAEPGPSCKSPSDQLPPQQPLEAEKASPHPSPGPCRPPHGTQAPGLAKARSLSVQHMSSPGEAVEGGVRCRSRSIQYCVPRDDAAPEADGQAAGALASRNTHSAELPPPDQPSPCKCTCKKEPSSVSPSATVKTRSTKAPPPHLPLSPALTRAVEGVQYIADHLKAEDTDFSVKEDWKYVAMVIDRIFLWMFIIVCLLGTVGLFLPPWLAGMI
Description: Agonist activity at human 3:2 alpha4beta2 nAChR expressed in Xenopus laevis oocytes after 1 min by two electrode voltage clamp technique

[5] = target: Neuronal acetylcholine receptor subunit alpha-7 (Rattus norvegicus, UniProt Q05941); conditions: tsa-201
Neuronal acetylcholine receptor subunit alpha-7, sequence (Q05941 23-502 limits assumed): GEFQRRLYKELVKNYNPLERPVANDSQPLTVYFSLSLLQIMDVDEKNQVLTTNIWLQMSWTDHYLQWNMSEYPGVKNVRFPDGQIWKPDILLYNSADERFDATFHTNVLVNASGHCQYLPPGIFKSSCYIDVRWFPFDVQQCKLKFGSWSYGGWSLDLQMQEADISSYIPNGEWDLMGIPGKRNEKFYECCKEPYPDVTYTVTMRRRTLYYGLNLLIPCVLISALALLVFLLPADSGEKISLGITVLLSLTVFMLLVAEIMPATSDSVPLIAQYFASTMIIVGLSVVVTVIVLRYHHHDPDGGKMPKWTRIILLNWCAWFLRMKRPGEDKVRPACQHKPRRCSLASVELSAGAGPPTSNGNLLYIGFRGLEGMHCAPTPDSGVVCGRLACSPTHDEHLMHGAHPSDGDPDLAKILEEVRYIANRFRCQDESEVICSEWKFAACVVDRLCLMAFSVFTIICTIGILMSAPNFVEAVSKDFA
Description: Displacement of [3H]MLA from rat nAChR alpha7 linked to ion channel portion of 5-HT3A receptor expressed in human tsA-201 cells after 2.5 hrs by scintillation counting analysis

[6] = target: T2, Neuronal acetylcholine receptor; alpha3/beta4 (Rattus norvegicus, UniProt P04757+P12392); experiment: biochemical
T2 sequence (P04757 whole entry): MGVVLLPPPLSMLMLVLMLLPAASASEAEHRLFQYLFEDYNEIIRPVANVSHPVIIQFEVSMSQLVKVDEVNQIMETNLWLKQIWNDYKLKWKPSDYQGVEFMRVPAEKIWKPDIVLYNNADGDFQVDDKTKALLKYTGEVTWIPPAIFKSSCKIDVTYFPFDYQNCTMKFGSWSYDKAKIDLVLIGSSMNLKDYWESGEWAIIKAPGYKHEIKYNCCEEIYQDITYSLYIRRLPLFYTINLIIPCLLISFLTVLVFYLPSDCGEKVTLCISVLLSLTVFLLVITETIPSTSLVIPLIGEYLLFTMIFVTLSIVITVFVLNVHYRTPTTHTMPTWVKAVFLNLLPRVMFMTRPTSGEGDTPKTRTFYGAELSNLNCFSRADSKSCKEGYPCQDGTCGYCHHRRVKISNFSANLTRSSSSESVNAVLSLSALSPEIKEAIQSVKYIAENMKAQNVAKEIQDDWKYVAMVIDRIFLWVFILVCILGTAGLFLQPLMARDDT
T2 sequence (P12392 whole entry): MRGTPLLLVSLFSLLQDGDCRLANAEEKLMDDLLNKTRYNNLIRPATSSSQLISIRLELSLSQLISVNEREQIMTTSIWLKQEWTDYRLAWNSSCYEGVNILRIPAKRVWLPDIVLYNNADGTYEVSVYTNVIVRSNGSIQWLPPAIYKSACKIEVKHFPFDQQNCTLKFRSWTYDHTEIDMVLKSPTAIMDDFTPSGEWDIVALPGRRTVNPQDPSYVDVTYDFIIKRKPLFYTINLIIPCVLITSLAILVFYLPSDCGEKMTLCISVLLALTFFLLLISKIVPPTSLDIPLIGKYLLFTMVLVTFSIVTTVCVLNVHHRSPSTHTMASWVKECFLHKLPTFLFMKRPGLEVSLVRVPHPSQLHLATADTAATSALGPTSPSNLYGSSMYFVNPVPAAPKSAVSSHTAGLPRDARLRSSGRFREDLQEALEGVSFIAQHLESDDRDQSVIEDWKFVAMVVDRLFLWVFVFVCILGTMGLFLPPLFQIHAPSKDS
Description: Displacement of [3H]epibatidine from rat recombinant alpha3beta4 nAChR expressed in HEK293 cells after 4 hrs by scintillation counting analysis

[7] = target: T1, Neuronal acetylcholine receptor; alpha4/beta2; remark: listed apart in the source
Description: Partial agonist activity at human 2:3 alpha4beta2 nAChR expressed in Xenopus laevis oocytes after 1 min by two electrode voltage clamp technique

[8] = target: Neuronal acetylcholine receptor; alpha3/beta4 (Rattus norvegicus) (UniProt P04757+P12392); experiment: Modulation of rat alpha3beta4 nAChR expressed in HEK293 cells up to 1000 uM after 30 mins by FLIPR membrane potential blue assay; type: cell-based
[9] = target: T2, Neuronal acetylcholine receptor; alpha3/beta4
Description: Agonist activity at rat alpha3beta4 nAChR expressed in HEK293 cells after 30 mins by FLIPR membrane potential blue assay

Neuronal acetylcholine receptor; alpha4/beta4, sequence (P09483 whole entry): as the sequence (P09483 whole entry) above
Neuronal acetylcholine receptor; alpha4/beta4, sequence (P12392 whole entry): as the sequence (P12392 whole entry) above

Cc1cn(C)c(OCC[C@@H](C)N(C)C)n1
Ki [1]: 50 µM | Ki [2]: 0.28 µM | Ki [3]: 1.5 µM | pKi [3]: 5.82 | EC50 [4]: 34 µM | Ki [5]: > 1000 µM | pKi [5]: < 3 | Ki [6]: 24 µM | EC50 [7]: 19 µM | Activity [8]: inactive

C[C@H](CCOn1cccn1)N(C)C
Ki [1]: 11 µM | Ki [2]: 0.018 µM | Ki [6]: 8.1 µM

C[C@H](CCOC(=O)N(C)C)N(C)C
EC50 [9]: 11 µM | Ki [1]: 0.15 µM | Ki [2]: 0.02 µM | Ki [3]: 0.079 µM | pKi [3]: 7.1 | EC50 [4]: 15.8 µM and 14 µM | Ki [5]: > 1000 µM | pKi [5]: < 3 | Ki [6]: 0.42 µM | EC50 [7]: 0.72 µM

C[C@H](CCOc1nc(Br)cn1C)N(C)C
Ki [1]: 50 µM | Ki [2]: 0.12 µM | Ki [5]: 1000 µM | pKi [5]: 3 | Ki [6]: 300 µM

C[C@H](CCOc1cnccn1)N(C)C
Ki [1]: 8.3 µM | Ki [2]: 0.24 µM | Ki [6]: 42 µM

C[C@H](CCOc1cccnc1)N(C)C
Ki [1]: 8.3 µM | Ki [2]: 0.03 µM | Ki [6]: 4.9 µM

C[C@H](CCOc1nccs1)N(C)C
Ki [1]: 1.8 µM | Ki [2]: 0.013 µM | Ki [6]: 4.7 µM
